Nine compounds from PubChem BioAssay (NCI) can be followed below.

What all share (experiment): NCI anticancer screen, dose series, 48 h
Test [1] concerns DMS 114 small cell lung.
The test system of test [2] is DMS 273 small cell lung.
Test [3] deals with HCC-2998 colon.
The subject of test [4] is HOP-18 NSCLC.
In test [5] the test system is MALME-3M melanoma.
The subject of test [6] is SK-MEL-2 melanoma.
Test [7] deals with SN12C renal.
In test [8] the test system is SNB-75 CNS.
For test [9], the system named is SR leukemia.
Test [10] deals with HS 578T breast.

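A five-concentration, 48-hour dose response in 96-well plates underlies each endpoint, interpolated linearly between surrounding concentrations. Here, GI50 denotes the concentration required for 50% inhibition of growth. TGI denotes the concentration required for complete inhibition of growth.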

Regarding `Cc1c2cc[n+](Cc3ccc(I)cc3)cc2c(C)c2c1[nH]c1ccccc12`, the TGI in [1] is 2.63 µM; in [2], 6.17 µM; in test [3], 5.25 µM; in test [4], greater than 13.2 µM; in test [5], 1.81 µM; in test [6] it was 1.64 µM. The TGI in [7] was greater than 25 µM; in test [8] it was 1.58 µM.
For the compound `N#C[S-].[La+3].c1ccc(-c2ccccn2)nc1.c1ccc(-c2ccccn2)nc1.c1ccc(-c2ccccn2)nc1`, the GI50 is 26.1 µM in test [1]; 19.1 µM in test [2]; 17.4 µM in test [3]; 27.1 µM in [4]; 23.3 µM in test [5]; 21.5 µM in test [6]. Besides, the values for the GI50 in test [7], in [8] and in [9] were 19.2 µM, 25.9 µM and 34.2 µM, respectively. Besides, the TGI in test [1] was 97.2 µM; in [2] it was 88.5 µM; in test [3], greater than 100 µM; in test [4], greater than 100 µM; in test [5], 60.9 µM; in [6], 53.6 µM. In addition, the TGI in test [7], in test [8] and in test [9] was greater than 100 µM in each case.
For the compound `O=c1cc(-c2cccc(OC(F)(F)F)c2)[nH]c2ccc(N3CCCC3)cc12`, the TGI is 0.011 µM in [3]; 86.2 µM in test [10]; greater than 100 µM in test [5]; 0.000848 µM in [6]; 55.9 µM in [7]; less than 0.0001 µM in [9].
For `[CH3][Sn]([CH3])([CH3])[S]C(=S)N1CCOCC1`, the GI50 is 0.772 µM in test [1]; 0.508 µM in test [2]; 3.41 µM in [3]; 3.85 µM in test [4]; 3.49 µM in [5]; 1.51 µM in [6]. For the same compound, the GI50 in [7] was 7.55 µM; in [8], 3.34 µM. For the same compound, the TGI in test [1] was 3.72 µM; in test [2], 6.13 µM; in test [3], 15.7 µM; in test [4], greater than 100 µM; in [5] it was 14.8 µM; in test [6], 4.75 µM. Besides, the TGI in test [7] is greater than 100 µM; in test [8] it was greater than 31.4 µM.
With `CCCCCCCCCCCC1N=C(N)N=C(N)N1c1cccc(Br)c1` (stereo not given), the GI50 in test [3] is 1.16 µM; in [10], 2.08 µM; in test [5], 1.77 µM; in [6], 1.55 µM. Also, the TGI in [3] came to 2.42 µM; in [10] it was 4.77 µM; in test [5], 3.38 µM; in test [6] it was 2.99 µM.
As to `CC1OC(OC2C(O)CC(OC3C(O)CC(OC4CCC5(C)C(CCC6C5CCC5(C)C(C7=CC(=O)OC7)C(O)CC65O)C4)OC3C)OC2C)CC(O)C1O` (stereo not given), the TGI in test [3] is 14.6 µM; in [10] it was greater than 100 µM; in test [5], 0.816 µM; in test [6], 1.55 µM; in [8], 5.37 µM; in test [9] it was greater than 100 µM.
In the case of `O=C(Nc1cccc(-n2ccc3c(NC(=O)c4ccccc4)ncnc32)c1)Nc1ccc(Cl)c(C(F)(F)F)c1`, the GI50 is 4.2 µM in test [3]; 2.55 µM in [10]; 1.99 µM in test [5]; 1.18 µM in [6]; 3.09 µM in test [7]; 0.954 µM in [8]. Also, the GI50 in test [9] was 2.35 µM. In addition, the TGI in test [3] is 14.9 µM; in test [10] it was 22.6 µM; in [5] it was 9.01 µM; in [6] it was 3.64 µM; in [7], 9.86 µM; in test [8], 9.15 µM. In test [9], this compound came in with a TGI of 15 µM.
For the compound `Brc1ccc2[nH]c3c(C4=NCCC4)nccc3c2c1`, the TGI in [1] was greater than 57.8 µM; in test [2], greater than 76 µM; in test [3], 39.1 µM; in [4], greater than 85.8 µM; in [5], 16.1 µM; in test [6] it was greater than 53.3 µM. Further, the results for the TGI in test [7] and in test [8] were greater than 91.6 µM and greater than 82 µM, respectively.
Turning to `Oc1c(Br)cc2c(c1Br)-c1c(c(O)c3c4c1=NCCC=4C=N3)NCC2`, the TGI in test [1] was found to be 9.76 µM; in test [2], 27.7 µM; in [4], 35.6 µM; in [6], 26.4 µM; in test [7], 29.3 µM; in test [8], 34.5 µM.
